Source: PubChem BioAssay AID1963445 (Molecular Pharmacology Branch, DTP, NCI, 2024)

Tested on: MCF7 complex spheroid growth, % test/control
Experiment: Anticancer human tumor MCF7 cell line growth inhibition [Asc];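 further: spheroids exposed to compounds for 7 days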;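 on viability, T/C: 100% = DMSO vehicle control wells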
Settings: for IC50: curve of first compound; for viability, T/C: stronger effect = lower value
How it was run: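 Tumor cells were grown as multicellular spheroids with stromal HUVEC and mesenchymal stem cells and treated singly or in combination. Concentrations fell in half-log steps from the clinical Cmax, or from 10 microM where none was known.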

## Cc1nc(N2CCC3(CC2)COC(C)C3N)c(CO)nc1Sc1ccnc(N)c1Cl (configuration not stated) + CNC(C)C(=O)NC1CN(S(=O)(=O)c2cccc(S(=O)(=O)N3CCC4CCC(C(=O)NC(c5ccccc5)c5ccccc5)N4C(=O)C(NC(=O)C(C)NC)C3)c2)CCC2CCC(C(=O)NC(c3ccccc3)c3ccccc3)N2C1=O
Second compound 0.00316 µM
  IC50: < 9.49 nM
Second compound 0.01 µM
  IC50: < 9.49 nM
Second compound 0.0316 µM
  IC50: < 9.49 nM
Second compound 0.1 µM
  IC50: < 9.49 nM
Second compound 0.316 µM
  IC50: < 9.49 nM
Second compound 1 µM
  IC50: < 9.49 nM
Second compound 0.00316 µM, first compound 0.00949 µM
  viability, T/C: 26.7%
Second compound 0.00316 µM, first compound 0.03 µM
  viability, T/C: 31.8%
Second compound 0.00316 µM, first compound 0.0949 µM
  viability, T/C: 19.9%
Second compound 0.00316 µM, first compound 0.3 µM
  viability, T/C: 17.6%
Second compound 0.00316 µM, first compound 0.949 µM
  viability, T/C: 10.6%
Second compound 0.00316 µM, first compound 3 µM
  viability, T/C: 10.9%
Second compound 0.01 µM, first compound 0.00949 µM
  viability, T/C: 15.9%
Second compound 0.01 µM, first compound 0.03 µM
  viability, T/C: 11.2%
Second compound 0.01 µM, first compound 0.0949 µM
  viability, T/C: 10.3%
Second compound 0.01 µM, first compound 0.3 µM
  viability, T/C: 13%
Second compound 0.01 µM, first compound 0.949 µM
  viability, T/C: 11.4%
Second compound 0.01 µM, first compound 3 µM
  viability, T/C: 11.1%
Second compound 0.0316 µM, first compound 0.00949 µM
  viability, T/C: 12.7%
Second compound 0.0316 µM, first compound 0.03 µM
  viability, T/C: 10.7%
Second compound 0.0316 µM, first compound 0.0949 µM
  viability, T/C: 12.2%
Second compound 0.0316 µM, first compound 0.3 µM
  viability, T/C: 11.9%
Second compound 0.0316 µM, first compound 0.949 µM
  viability, T/C: 11.3%
Second compound 0.0316 µM, first compound 3 µM
  viability, T/C: 9.37%
Second compound 0.1 µM, first compound 0.00949 µM
  viability, T/C: 10.1%
Second compound 0.1 µM, first compound 0.03 µM
  viability, T/C: 12.7%
Second compound 0.1 µM, first compound 0.0949 µM
  viability, T/C: 11.3%
Second compound 0.1 µM, first compound 0.3 µM
  viability, T/C: 10.4%
Second compound 0.1 µM, first compound 0.949 µM
  viability, T/C: 10.6%
Second compound 0.1 µM, first compound 3 µM
  viability, T/C: 10.1%
Second compound 0.316 µM, first compound 0.00949 µM
  viability, T/C: 13.9%
Second compound 0.316 µM, first compound 0.03 µM
  viability, T/C: 12.2%
Second compound 0.316 µM, first compound 0.0949 µM
  viability, T/C: 11.5%
Second compound 0.316 µM, first compound 0.3 µM
  viability, T/C: 11.6%
Second compound 0.316 µM, first compound 0.949 µM
  viability, T/C: 12.3%
Second compound 0.316 µM, first compound 3 µM
  viability, T/C: 12%
Second compound 1 µM, first compound 0.00949 µM
  viability, T/C: 13.6%
Second compound 1 µM, first compound 0.03 µM
  viability, T/C: 12.7%
Second compound 1 µM, first compound 0.0949 µM
  viability, T/C: 14.2%
Second compound 1 µM, first compound 0.3 µM
  viability, T/C: 11.9%
Second compound 1 µM, first compound 0.949 µM
  viability, T/C: 12.6%
Second compound 1 µM, first compound 3 µM
  viability, T/C: 11.9%
